Measured values from patent US8546380B2, “Aminodihydrothiazine derivatives” (Shionogi & Co., Ltd., priority 2005, dated 2013).
Where two headings read alike, the source gives them in different places.

What was measured:
[1] = target: recombinant human BACE-1 protein (Homo sapiens (Human), UniProt P56817); test: Measurement of Inhibition of β-Secretase Activity; format: biochemical
Summary of the method: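 Recombinant human BACE-1 incubated with compound and Eu-cryptate-labelled biotinylated peptide substrate 3 h at 30° C in 50 mM sodium acetate pH 5.0, 0.008% Triton X-100. Streptavidin-XL665 in KF-containing phosphate buffer pH 7.0 then added, 1 h at 30° C, for time-resolved FRET read-out.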

[2] = recombinant human BACE-1 protein, 3 h at 30° C., pH5.0, read-out: IC50 value
[3] = fluorescence-quenched peptide substrate 18 nM, BACE-1 7.4 nM, 3 h at 30° C., pH5.0, read-out: IC50 value

Sequence of recombinant human BACE-1 protein (P56817 46-501): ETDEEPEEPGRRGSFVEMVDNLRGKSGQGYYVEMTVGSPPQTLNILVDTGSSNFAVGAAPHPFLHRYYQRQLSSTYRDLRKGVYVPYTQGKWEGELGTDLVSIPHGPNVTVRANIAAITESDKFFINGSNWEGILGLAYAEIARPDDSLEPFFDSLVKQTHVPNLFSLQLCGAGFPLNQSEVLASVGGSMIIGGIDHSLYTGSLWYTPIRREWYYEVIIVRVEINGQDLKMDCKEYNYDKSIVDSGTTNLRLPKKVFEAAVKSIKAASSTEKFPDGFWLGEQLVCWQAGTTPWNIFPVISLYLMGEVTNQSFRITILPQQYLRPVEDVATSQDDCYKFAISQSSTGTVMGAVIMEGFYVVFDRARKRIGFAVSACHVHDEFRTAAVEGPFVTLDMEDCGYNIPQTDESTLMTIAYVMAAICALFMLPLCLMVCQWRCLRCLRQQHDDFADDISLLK

Row | Compound | melting point [°C] | IC50 [1, 2] [µM] | IC50 [1, 3] [µM] | IC50 [1] [µM]
1 | CC1(c2cccc(OCCCc3ccc(Cl)cc3)c2)CCSC(N)=N1 (stereo not shown) [Compound 1207] | 106 to 108 | 4 | – | –
2 | CC1(c2ccc(Cl)cc2)CCSC(N)=N1 (stereo not shown) [Compound 1062] | 136 to 137 | – | < 100 | –
3 | CC1(c2cccc(COc3ccc(Cl)cc3)c2)CCSC(N)=N1 (stereo not shown) [Compound 1028] | 105 to 106 | – | < 100 | –
4 | CC1(c2cccc(NC(=O)c3ncc(Cl)cc3Cl)c2)CCSC(N)=N1.Cl (stereo not shown) [Compound 127] | 280 to 285 | 0.054 | – | –
5 | CC1(c2cccc(/C=N/OCc3ccncc3)c2)CCSC(N)=N1 (stereo not shown) [Compound 456] | 147 to 149 | – | < 100 | –
6 | CC1(c2cc(F)cc(NC(=O)c3ccc(Cl)cn3)c2)CCSC(N)=N1 (stereo not shown) [Compound 99] | 221 to 224 | – | < 100 | –
7 | Cc1ccccc1Oc1ccc(C2(C)CCSC(N)=N2)cc1 (stereo not shown) [Compound 729] | 167 to 169 | – | < 100 | –
8 | COC(=O)c1cc(C(=O)Nc2cccc(C3(C)CCSC(N)=N3)c2)nn1C (stereo not shown) [Compound 687] | 164 to 167 | – | < 100 | –
9 | CC1(c2cc(NC(=O)c3n[nH]c4ccccc34)ccc2F)CCSC(N)=N1 (stereo not shown) [Compound 241] | 187 to 190 | – | < 100 | –
10 | COc1ccc(C2(C)CCSC(N)=N2)cc1F (stereo not shown) [Compound 551] | 139 to 141 | – | < 100 | –
11 | CC1(c2cc(NC(=O)c3ccc(Cl)cn3)cc(C(=O)Nc3ccccc3)c2)CCSC(N)=N1 (stereo not shown) [Compound 1217] | 263 to 266 | – | < 100 | –
12 | CC1(c2cc(C#N)cc(NC(=O)c3ccc(Cl)cn3)c2)CCSC(N)=N1 (stereo not shown) [Compound 255] | 238 to 239 | – | < 100 | –
13 | CC1(c2cccc(NCc3ccncc3)c2)CCSC(N)=N1 (stereo not shown) [Compound 728] | 179 to 182 | – | < 100 | –
14 | CC1(c2cccc(NC(=O)c3ccc(C(F)(F)F)cc3)c2)CCSC(N)=N1 (stereo not shown) [Compound 26] | 182 to 184 | 1.98 | – | –
15 | Cc1cnc(C(=O)Nc2cccc(C3(C)CCSC(N)=N3)c2)cn1 (stereo not shown) [Compound 444] | 214 to 215 | – | – | < 100
16 | CC1(c2ccc3c(c2)OCCO3)CCSC(N)=N1 (stereo not shown) [Compound 18] | 181 to 183 | – | < 100 | –
17 | CC1(c2cccc(CNC(=O)c3ccc(F)cc3)c2)CCSC(N)=N1.Cl (stereo not shown) [Compound 1241] | 194 to 195 | – | < 100 | –
18 | CC1(c2cccc(/C=C\CCc3ccc(Cl)cc3)c2)CCSC(N)=N1.Cl (stereo not shown) [Compound 1261] | 179 to 180 | – | < 100 | –
19 | CC1(c2ccc(C(=O)Nc3ccccc3)s2)CCSC(N)=N1 (stereo not shown) [Compound 483] | 224 to 227 | – | < 100 | –
20 | CC1(c2cc(N)cc(Br)c2)CCSC(N)=N1.Cl.Cl (stereo not shown) [Compound 588] | 155 to 156 | – | < 100 | –
21 | CC1(c2ccccc2)CC(c2ccccc2)SC(N)=N1 (stereo not shown) [Compound 835] | 139 to 140 | – | < 100 | –
22 | Cc1cc(C(=O)Nc2cccc(C3(C)CCSC(N)=N3)c2)n(C)n1 (stereo not shown) [Compound 130] | 128 to 131 | – | < 100 | –
23 | CC1(c2cccc(/C=C/C(=O)Nc3ccc(Cl)cn3)c2)CCSC(N)=N1.Cl.Cl (stereo not shown) [Compound 504] | 209 to 219 | 2.5 | – | –
24 | CC1(c2cccc(/C=N/O)c2)CCSC(N)=N1 (stereo not shown) [Compound 611] | 200 to 202 | – | < 100 | –
25 | COc1ccc(NC(=O)/C=C(\Cl)c2cccc(C3(C)CCSC(N)=N3)c2)cc1 (stereo not shown) [Compound 1114] | 121 to 124 | – | < 100 | –
26 | CC1(c2csc3ccccc23)CCSC(N)=N1 (stereo not shown) [Compound 42] | 187 to 188 | – | < 100 | –
